Measured values as given in patent EP1144368B1, “ACETYLENIC ALPHA-AMINO ACID-BASED SULFONAMIDE HYDROXAMIC ACID TACE INHIBITORS” (priority 1999, dated 2000).

System: THP-1 cells
Test: THP-1 Soluble Protein Assay (LPS-stimulated; ELISA of TNF-a, TNF-R p75/80, TNF-R p55/60, IL-8)
Format: cell-based, human
Conditions: Homo sapiens, THP-1, read-out: THP % inhibition @ 3 µM, 3 µM

Structure (SMILES): CC#CCOc1ccc(S(=O)(=O)NC(C(=O)NO)c2ccc(OCCN3CCN(C(=O)OC(C)(C)C)CC3)cc2)cc1 (centres unmarked) [Example 202, tert-Butyl 4-(2-{4-[1-({[4-(2-butynyloxy)phenyl]sulfonyl}amino)-2-(hydroxyamino)-2-oxoethyl)phenoxy]ethyl)-1-piperazinecarboxylate]
- inhibition at 3 µM: 45%

Structure (SMILES): CC#CCOc1ccc(S(=O)(=O)NC(C(=O)NO)c2ccc(OCCN(C)C(=O)OC(C)(C)C)cc2)cc1 (centres unmarked) [Example 203, tert-Butyl 4-(2-{4-[1-({[4-{2-butynyloxy)phenyl]sulfonyl}amino)-2-(hydroxyamino)-2-oxoethyl)phenoxy]ethyl)-(methyl)carbamate]
- inhibition at 3 µM: 73%

Structure (SMILES): CC#CCOc1ccc(S(=O)(=O)NC(C(=O)NO)c2ccc(OCCN3CCCC3)cc2)cc1 (centres unmarked) [Example 205, 2-({[4-(2-Butynyloxy)phenyl]sulfonyl}amino)-N-hydroxy-2-{4-[2-(1-pyrrolidinyl)ethoxy]phenyl}acetamide]
- inhibition at 3 µM: 66%

Structure (SMILES): CC#CCOc1ccc(S(=O)(=O)NC(C(=O)NO)c2ccc(OCCN3CCOCC3)cc2)cc1 (centres unmarked) [Example 206, 2-({[4-(2-Butynyloxy)phenyl]sulfonyl}amino)-N-hydroxy-2-{4-[2-(4-morpholinyl)ethoxy]phenyl}acetamide]
- inhibition at 3 µM: 70%

Structure (SMILES): CC#CCOc1ccc(S(=O)(=O)NC(C(=O)NO)c2ccc(OCCN(C)C)cc2)cc1 (centres unmarked) [Example 207, 2-({[4-(2-Butynyloxy)phenyl]sulfonyl}amino){4-[2-(dimethylamino)ethoxy]phenyl}-N-hydroxyacetamide]
- inhibition at 3 µM: 51%

Structure (SMILES): CC#CCOc1ccc(S(=O)(=O)NC(C(=O)NO)c2ccc(OCCc3scnc3C)cc2)cc1 (centres unmarked) [Example 208, 2-({[4-(2-Butynyloxy)phenyl]sulfonyl}amino)-N-hydroxy-2-{4-[2-(4-methyl-1,3-thiazol-5-yl)ethoxy]phenyl}acetamide]
- inhibition at 3 µM: 74%

Structure (SMILES): CC#CCOc1ccc(S(=O)(=O)NC(C(=O)NO)c2ccc(OCCOCCOCCOC)cc2)cc1 (centres unmarked) [Example 209, 2-({[4-(2-Butynyloxy)phenyl]sulfonyl}amino)-N-hydroxy-2-(4-{2-[2-(2-methoxyethoxy)ethoxy]ethoxy}phenyl)acetamide]
- inhibition at 3 µM: 75%

Structure (SMILES): CC#CCOc1ccc(S(=O)(=O)N(C)C(C(=O)NO)c2ccc(Cl)cc2)cc1 (centres unmarked) [Example 212, 2-[{[4-(2-Butynyloxy)phenyl]sulfonyl}(methyl)amino]-2-(4-chlorophenyl)-N-hydroxyacetamide]
- inhibition at 3 µM: 86%

Structure (SMILES): CC#CCOc1ccc(S(=O)(=O)N(C)C(CCCSc2ccc(Cl)cc2)C(=O)NO)cc1 (centres unmarked) [Example 213, 2-[{[4-(2-Butynyloxy)phenyl]sulfonyl}(methyl)amino]-5-[(4-chlorophenyl)sulfanyl]-N-hydroxypentanamide]
- inhibition at 3 µM: 87%

Structure (SMILES): CC#CCOc1ccc(S(=O)(=O)N2CCNCC2C(=O)NO)cc1 (centres unmarked) [Example 214, 1-(4-But-2-ynyloxy-benzenesulfonyl)-piperazine-2-carboxylic acidhydroxyamide]
- inhibition at 3 µM: 71%

Structure (SMILES): CC#CCOc1ccc(S(=O)(=O)N2CCN(C(=O)N3CCOCC3)CC2C(=O)NO)cc1 (centres unmarked) [Example 215, 1-(4-But-2-ynyloxy-benzenesulfonyl)-4-(morpholine-4-carbonyl)-piperazine-2-carboxylic acid hydroxyamide]
- inhibition at 3 µM: 51%

Structure (SMILES): CC#CCOc1ccc(S(=O)(=O)N2CCN(C(=O)N(CC)CC)CC2C(=O)NO)cc1 (centres unmarked) [Example 216, 4-(4-But-2-ynyloxy-benzenesulfonyl)-piperazine-1,3-dicarboxylic acid 1-diethylamide 3-hydroxyamide]
- inhibition at 3 µM: 59%

Structure (SMILES): CC#CCOc1ccc(S(=O)(=O)N2CCN(C(=O)N3CCCC3)CC2C(=O)NO)cc1 (centres unmarked) [Example 217, 1-(4-But-2-ynyloxy-benzenesulfonyl)-4-(pyrrolidine-1-carbonyl)-piperazine-2-carboxylic acid hydroxyamide]
- inhibition at 3 µM: 73%

Structure (SMILES): CC#CCOc1ccc(S(=O)(=O)N2CCN(C(=O)N(C(C)C)C(C)C)CC2C(=O)NO)cc1 (centres unmarked) [Example 218, 4-(4-But-2-ynyloxy-benzenesulfonyl)-piperazine-1,3-dicarboxylic acid 1-diisopropylamide 3-hydroxyamide]
- inhibition at 3 µM: 56%

Structure (SMILES): CC#CCOc1ccc(S(=O)(=O)N2CCN(C(=O)OCc3ccccc3)CC2C(=O)NO)cc1 (centres unmarked) [Example 219, Benzyl 4-{[4-(2-butynyloxy)phenyl]sulfonyl}-3-[(hydroxyamino)carbonyl]-1-piperazinecarboxylate]
- inhibition at 3 µM: 87%

Structure (SMILES): CC#CCOc1ccc(S(=O)(=O)N2CCN(C(=O)N(C)c3ccccc3)CC2C(=O)NO)cc1 (centres unmarked) [Example 220, 4-(4-But-2-ynyloxy-benzenesulfonyl)-piperazine-1,3-dicarboxylic acid 3-hydroxyamide 1-(methyl-phenyl-amide)]
- inhibition at 3 µM: 60%

Structure (SMILES): CC#CCOc1ccc(S(=O)(=O)N2CCN(C(=O)Nc3ccc(OC)cc3)CC2C(=O)NO)cc1 (centres unmarked) [Example 221, 4-{[4-(2-Butynyloxy)phenyl]sulfonyl}-N-3-hydroxy-N-1-(4-methoxyphenyl)-1,3-piperazinedicarboxamide]
- inhibition at 3 µM: 58%

Structure (SMILES): CC#CCOc1ccc(S(=O)(=O)N2CCN(C(=O)Nc3ccc(F)cc3)CC2C(=O)NO)cc1 (centres unmarked) [Example 222, 4-{[4-(2-Butynyloxy)phenyl]sulfonyl}-N-1-(4-fluorophenyl)-N-3-hydroxy-1,3-piperazinedicarboxamide]
- inhibition at 3 µM: 61%

Structure (SMILES): CC#CCOc1ccc(S(=O)(=O)N2CCN(C(=O)Nc3cc(Cl)cc(Cl)c3)CC2C(=O)NO)cc1 (centres unmarked) [Example 223, 4-{[4-(2-Butynyloxy)phenyl]sulfonyl}-N-1-(3,5-dichlorophenyl)-N-3-hydroxy-1,3-piperazinedicarboxamide]
- inhibition at 3 µM: 42%

Structure (SMILES): CC#CCOc1ccc(S(=O)(=O)N2CCN(C(C)=O)CC2C(=O)NO)cc1 (centres unmarked) [Example 224, 4-Acetyl-1-(4-but-2-ynyloxy-benzenesulfonyl)-piperazine-2-carboxylic acid hydroxyamide]
- inhibition at 3 µM: 81%

Structure (SMILES): CC#CCOc1ccc(S(=O)(=O)N2CCN(C(=O)CC)CC2C(=O)NO)cc1 (centres unmarked) [Example 225, 1-(4-But-2-ynyloxy-benzenesulfonyl)-4-propionyl-piperazine-2-carboxylic acid hydroxyamide]
- inhibition at 3 µM: 76%

Structure (SMILES): CC#CCOc1ccc(S(=O)(=O)N2CCN(C(=O)OC)CC2C(=O)NO)cc1 (centres unmarked) [Example 228, 4-(4-But-2-ynyloxy-benzenesulfonyl)-3-hydroxycarbamoyl-piperazine-1-carboxylic acid methyl ester]
- inhibition at 3 µM: 81%

Structure (SMILES): CC#CCOc1ccc(S(=O)(=O)N2CCN(C(=O)CNC(=O)OC(C)(C)C)CC2C(=O)NO)cc1 (centres unmarked) [Example 229, {2-[4-(4-But-2-ynyloxy-bemenesulfonyl)-3-hydroxycarbamoyl-piperazin-1-yl]-2-oxo-ethyl}-carbamic acid tert-butyl ester]
- inhibition at 3 µM: 85%

Structure (SMILES): CC#CCOc1ccc(S(=O)(=O)N2CCN(C(=O)CN)CC2C(=O)NO)cc1 (centres unmarked) [Example 230, 4-Aminoacetyl-1-(4-but-2-ynyloxy-benzenesulfonyl)-piperazine-2-carboxylic acid hydroxyamide]
- inhibition at 3 µM: 27%

Structure (SMILES): CC#CCOc1ccc(S(=O)(=O)N2CCN(C(=O)C3(C)COC(C)(C)OC3)CC2C(=O)NO)cc1 (centres unmarked) [Example 231, 1-{[4-(2-Butynyloxy)phenyl]sulfonyl}-N-hydroxy-4-[(2,2,5-trimethyl-1,3-dioxan-5-yl)carbonyl)-2-piperazinecarboxamide]
- inhibition at 3 µM: 73%

Structure (SMILES): CC#CCOc1ccc(S(=O)(=O)N2CCN(C(=O)C(C)(CO)CO)CC2C(=O)NO)cc1 (centres unmarked) [Example 232, 1-{[4-(2-Butynyloxy)phenyl]sulfonyl}-N-hydroxy-4-[3-hydroxy-2-(hydroxymethyl)-2-methylpropanoyl]-2-piperazinecarboxamide]
- inhibition at 3 µM: 72%

Structure (SMILES): CC#CCOc1ccc(S(=O)(=O)N2CCN(Cc3ccc(Br)cc3)CC2C(=O)NO)cc1 (centres unmarked) [Example 233, 4-(4-Bromo-benzyl)-1-(4-but-2-ynyloxy-benzenesulfonyl)-piperazine-2-carboxylic acid hydroxyamide]
- inhibition at 3 µM: 33%

Structure (SMILES): CC#CCOc1ccc(S(=O)(=O)N2CCSCC2C(=O)NO)cc1 (centres unmarked) [Example 239]
- inhibition at 3 µM: 84%

Structure (SMILES): CC#CCOc1ccc(S(=O)(=O)N2CCSC3(CCN(Cc4ccccc4)CC3)C2C(=O)NO)cc1 (centres unmarked) [Example 241, 9-Benzyl-4-{[4-(2-butynyloxy)phenyl]sulfonyl}-N-hydroxy-1-thia-4,9-diazaspiro[5.5]undecane-5-carboxamide]
- inhibition at 3 µM: 94%

Structure (SMILES): CC#CCOc1ccc(S(=O)(=O)N2CCSC3(CCN(C)CC3)C2C(=O)NO)cc1 (centres unmarked) [Example 242, 9-methyl-4-{[4-(2-butynyloxy)phenyl]sulfonyl}-N-hydroxy-1-thia-4,9-diazaspiro[5.5]undecane-5-carboxamide]
- inhibition at 3 µM: 73%

Structure (SMILES): CC1(C)SCCN(S(=O)(=O)c2ccc(OCC#CCCOC3CCCCO3)cc2)C1C(=O)NO (centres unmarked) [Example 243, N-Hydroxy-2,2-dimethyl-4-[(4-{[5-(tetrahydro-2H-pyran-2-yloxy)-2-pentynyl]oxy}phenyl)sulfonyl]-3-thiomorpholine carboxamide]
- inhibition at 3 µM: 52%

Structure (SMILES): CC1(C)SCCN(S(=O)(=O)c2ccc(OCC#CCCO)cc2)C1C(=O)NO (centres unmarked) [Example 244, N-Hydroxy-4-({4-[(5-hydroxy-2-pentynyl)oxy]phenyl}sulfonyl)-2,2-dimethyl-3-thiomorpholine carboxamide]
- inhibition at 3 µM: 57%

Structure (SMILES): CC(C)(C)OC(=O)NCCC#CCOc1ccc(S(=O)(=O)N2CCSC(C)(C)C2C(=O)NO)cc1 (centres unmarked) [Example 245, tert-Butyl 5-[4-({3-[(hydroxyamino)carbonyl]-2,2-dimethyl-4-thiomorpholinyl}sulfonyl)phenoxy]-3-pentynylcarbamate]
- inhibition at 3 µM: 37%

Structure (SMILES): CC1(C)SCCN(S(=O)(=O)c2ccc(OCC#CCCN)cc2)C1C(=O)NO (centres unmarked) [Example 246, 4-({4-[(5-Amino-2-pentynyl)oxy]phenyl}sulfonyl)-N-hydroxy-2,2-dimethyl-3-thiomorpholine carboxamide]
- inhibition at 3 µM: 4%

Structure (SMILES): CC1(C)SCCN(S(=O)(=O)c2ccc(OCC#CCOCc3ccccc3)cc2)C1C(=O)NO (centres unmarked) [Example 247, 4-[(4-{[4-(Benzyloxy)-2-butynyl]oxy}phenyl)sulfonyl]-N-hydroxy-2,2-dimethyl-3-thiomorpholine carboxamide]
- inhibition at 3 µM: 57%
